Measurements from patent EP4635945A1, “CRYSTAL FORM OF PROXIMOD, PREPARATION METHOD THEREFOR, AND USE THEREOF” (Jiankuan (Suzhou) Biotechnology Co., Ltd, priority 2022, dated 2024).

Assay: Crystal form stability on vacuum drying (XRPD)
Type: physicochemical
Method: After the above sample was dried under vacuum at 50 °C for 6 hours, the XRPD detection was performed. […] The TGA curves of the sample of the crystal form D of proximod which was dried and the sample of the crystal form D of proximod which was dried and placed at room temperature for two days are shown in FIGS. 16 and 17, respectively. […] The theoretical weight loss of the proximod […] is 6.1%. […] Based on the above experimental results, it is inferred that the crystal form D is an unstable sesquihydrate. It is inferred that the crystal form D is an unstable sesquihydrate and is prone to crystal transformation during drying and storage, making it difficult to prepare a pure phase.
The obtained wet sample was subjected to the XRPD detection. The obtained solid was the crystal form F of the present application, and the X-ray powder diffraction (XRPD) pattern of the crystal form F is shown in FIG. 21. After the wet sample was dried under vacuum at 50 °C for 2 hours, the XRPD detection was performed.

| Structure (SMILES) | Crystal form after drying (XRPD) (dried under vacuum at 50 °C for 6 hours) | Crystal form after drying (XRPD) (wet sample dried under vacuum at 50 °C for 2 hours) |
| --- | --- | --- |
| CCCc1nc(-c2ccc(-c3ccc(CCC(N)(CO)CO)cc3)cc2)co1.Cl [Crystal form D, 2-amino-2-{2-(4'-(2-propyloxazol-4-yl)-[1,1'-biphenyl]-4-yl)ethyl}-1,3-propanediol hydrochloride] | partially crystal transformed into the crystal form A | – |
| CCCc1nc(-c2ccc(-c3ccc(CCC(N)(CO)CO)cc3)cc2)co1.Cl [Crystal form F, 2-amino-2-{2-(4'-(2-propyloxazol-4-yl)-[1,1'-biphenyl]-4-yl)ethyl}-1,3-propanediol hydrochloride] | – | partially crystal transformed into the crystal form A |
